Source: publication PMC12988607 (BMC Pharmacology & Toxicology, 2026)
Like-named read-outs stand apart in the source and are kept apart here.

Tests used:
[1] = within 3 hours; cited from earlier work
[2] = cited from earlier work
[3] = system: healthy Chinese volunteers; assay: Urine PD parameters; type: in vivo; settings: for urine-GLU: 0~4 h after 10 mg EMPA, p < 0.001
[4] = system: healthy Chinese volunteers; assay: Blood PD parameters; type: in vivo; settings: p < 0.05; for blood-GLU / insulin: fasting group; for blood-GLU: before EMPA (5.1 ± 0.4) mmol/L; for insulin: before EMPA (7.0 ± 3.7) mU/L
[5] = system: healthy Chinese volunteers; assay: RAAS-related parameters; type: in vivo; settings: for Ang II: after EMPA
[6] = type: in vivo, healthy Chinese volunteers; settings: for AUC(0-t): AUC0-t; for AUC(0-t) / AUC(0-inf) / Cmax / Tmax: geometric mean; for AUC(0-inf): AUC0-∞; for half-life: t1/2, geometric mean
[7] = Fed (high-fat diet), single 10 mg EMPA
[8] = human, plasma, oral, 10 mg, Fasting, single 10 mg EMPA
[9] = human, plasma, oral, 10 mg, Fed (high-fat diet), single 10 mg EMPA

Plasma concentrations Fasting/fed ([6]; 0.5 h after 10 mg EMPA): 3.00
Plasma concentrations Fasting/fed ([6]; 1 h after 10 mg EMPA): 2.27
Plasma concentrations Fasting/fed ([6]; 1.25 h after 10 mg EMPA): 1.92
Plasma concentrations Fasting/fed ([6]; 1.5 h after 10 mg EMPA): 1.71
Plasma concentrations Fasting/fed ([6]; 1.75 h after 10 mg EMPA): 1.68
Plasma concentrations Fasting/fed ([6]; 2 h after 10 mg EMPA): 1.61
Plasma concentrations Fasting/fed ([6]; 2.25 h after 10 mg EMPA): 1.62
Plasma concentrations Fasting/fed ([6]; 2.75 h after 10 mg EMPA): 1.55
Plasma concentrations Fasting/fed ([6]; 3 h after 10 mg EMPA): 1.55
Plasma concentrations Fasting/fed ([6]; 4 h after 10 mg EMPA): 1.40
Plasma concentrations Fasting/fed ([6]; 6 h after 10 mg EMPA): 1.36
Plasma concentrations Fasting/fed ([6]; 8 h after 10 mg EMPA): 1.30
Plasma concentrations Fasting/fed ([6]; 10 h after 10 mg EMPA): 1.24
Plasma concentrations Fasting/fed ([6]; 12 h after 10 mg EMPA): 1.21
Plasma concentrations Fasting/fed ([6]; 24 h after 10 mg EMPA): 1.09
Plasma concentrations Fasting/fed ([6]; 36 h after 10 mg EMPA): 1.09
Plasma concentrations Fasting/fed ([6]; 48 h after 10 mg EMPA): 1.03
AUC_%Extrap, geometric mean ([6]; Fasting, single 10 mg EMPA): 1.80%
AUC_%Extrap, geometric mean [6, 7]: 2.57%
λz, geometric mean [6, 7]: 0.08 h⁻¹
k el ([6]; human, plasma, oral, 10 mg): 2.22e-05 s⁻¹
AUC(0-t) [6, 8]: 1310 ng·h/mL
AUC(0-t) [6, 9]: 951 ng·h/mL
AUC(0-inf) [6, 8]: 1330 ng·h/mL
AUC(0-inf) [6, 9]: 978 ng·h/mL
Cmax [6, 8]: 187 ng/mL
Cmax [6, 9]: 113 ng/mL
concentration at 1 h ([6]; human, plasma, oral, 10 mg, Plasma concentrations, Fasting (n = 56), 1 h after 10 mg EMPA): 166 ± 60.6 ng/mL
concentration at 2 h ([6]; human, plasma, oral, 10 mg, Plasma concentrations, Fasting (n = 56), 2 h after 10 mg EMPA): 152 ± 27.3 ng/mL
concentration at 3 h ([6]; human, plasma, oral, 10 mg, Plasma concentrations, Fasting (n = 56), 3 h after 10 mg EMPA): 123 ± 17.9 ng/mL
concentration at 4 h ([6]; human, plasma, oral, 10 mg, Plasma concentrations, Fasting (n = 56), 4 h after 10 mg EMPA): 104 ± 16.4 ng/mL
concentration at 6 h ([6]; human, plasma, oral, 10 mg, Plasma concentrations, Fasting (n = 56), 6 h after 10 mg EMPA): 72 ± 12.5 ng/mL
concentration at 8 h ([6]; human, plasma, oral, 10 mg, Plasma concentrations, Fasting (n = 56), 8 h after 10 mg EMPA): 52.6 ± 9.1 ng/mL
concentration at 10 h ([6]; human, plasma, oral, 10 mg, Plasma concentrations, Fasting (n = 56), 10 h after 10 mg EMPA): 40.4 ± 8.2 ng/mL
concentration at 12 h ([6]; human, plasma, oral, 10 mg, Plasma concentrations, Fasting (n = 56), 12 h after 10 mg EMPA): 30.7 ± 6.5 ng/mL
concentration at 24 h ([6]; human, plasma, oral, 10 mg, Plasma concentrations, Fasting (n = 56), 24 h after 10 mg EMPA): 10.1 ± 3 ng/mL
concentration at 36 h ([6]; human, plasma, oral, 10 mg, Plasma concentrations, Fasting (n = 56), 36 h after 10 mg EMPA): 3.5 ± 1.4 ng/mL
concentration at 48 h ([6]; human, plasma, oral, 10 mg, Plasma concentrations, Fasting (n = 56), 48 h after 10 mg EMPA): 2.2 ± 0.9 ng/mL
concentration at 0.5 h ([6]; human, plasma, oral, 10 mg, Plasma concentrations, Fed (n = 58), high-fat diet, 0.5 h after 10 mg EMPA): 34.2 ± 31 ng/mL
concentration at 1 h ([6]; human, plasma, oral, 10 mg, Plasma concentrations, Fed (n = 58), high-fat diet, 1 h after 10 mg EMPA): 72.9 ± 49.5 ng/mL
concentration at 1.25 h ([6]; human, plasma, oral, 10 mg, Plasma concentrations, Fed (n = 58), high-fat diet, 1.25 h after 10 mg EMPA): 87.4 ± 39.2 ng/mL
concentration at 1.5 h ([6]; human, plasma, oral, 10 mg, Plasma concentrations, Fed (n = 58), high-fat diet, 1.5 h after 10 mg EMPA): 95.7 ± 33.7 ng/mL
concentration at 1.75 h ([6]; human, plasma, oral, 10 mg, Plasma concentrations, Fed (n = 58), high-fat diet, 1.75 h after 10 mg EMPA): 94.1 ± 28.1 ng/mL
concentration at 2 h ([6]; human, plasma, oral, 10 mg, Plasma concentrations, Fed (n = 58), high-fat diet, 2 h after 10 mg EMPA): 94.2 ± 26.3 ng/mL
concentration at 2.25 h ([6]; human, plasma, oral, 10 mg, Plasma concentrations, Fed (n = 58), high-fat diet, 2.25 h after 10 mg EMPA): 91.5 ± 22.6 ng/mL
concentration at 2.75 h ([6]; human, plasma, oral, 10 mg, Plasma concentrations, Fed (n = 58), high-fat diet, 2.75 h after 10 mg EMPA): 83.9 ± 16 ng/mL
concentration at 3 h ([6]; human, plasma, oral, 10 mg, Plasma concentrations, Fed (n = 58), high-fat diet, 3 h after 10 mg EMPA): 79.4 ± 15 ng/mL
concentration at 4 h ([6]; human, plasma, oral, 10 mg, Plasma concentrations, Fed (n = 58), high-fat diet, 4 h after 10 mg EMPA): 74.4 ± 11.1 ng/mL
concentration at 6 h ([6]; human, plasma, oral, 10 mg, Plasma concentrations, Fed (n = 58), high-fat diet, 6 h after 10 mg EMPA): 53.1 ± 8.8 ng/mL
concentration at 8 h ([6]; human, plasma, oral, 10 mg, Plasma concentrations, Fed (n = 58), high-fat diet, 8 h after 10 mg EMPA): 40.5 ± 7.6 ng/mL
concentration at 10 h ([6]; human, plasma, oral, 10 mg, Plasma concentrations, Fed (n = 58), high-fat diet, 10 h after 10 mg EMPA): 32.7 ± 6.7 ng/mL
concentration at 12 h ([6]; human, plasma, oral, 10 mg, Plasma concentrations, Fed (n = 58), high-fat diet, 12 h after 10 mg EMPA): 25.4 ± 4.9 ng/mL
concentration at 24 h ([6]; human, plasma, oral, 10 mg, Plasma concentrations, Fed (n = 58), high-fat diet, 24 h after 10 mg EMPA): 9.3 ± 1.8 ng/mL
concentration at 36 h ([6]; human, plasma, oral, 10 mg, Plasma concentrations, Fed (n = 58), high-fat diet, 36 h after 10 mg EMPA): 3.2 ± 1.2 ng/mL
concentration at 48 h ([6]; human, plasma, oral, 10 mg, Plasma concentrations, Fed (n = 58), high-fat diet, 48 h after 10 mg EMPA): 2.2 ± 0.8 ng/mL
Tmax [6, 8]: 1.31 h
Tmax [6, 9]: 1.67 h
half-life [6, 8]: 8.18 h
half-life [6, 9]: 8.34 h
SMILES: OC[C@H]1O[C@@H](c2ccc(Cl)c(Cc3ccc(O[C@H]4CCOC4)cc3)c2)[C@H](O)[C@@H](O)[C@@H]1O [EMPA, empagliflozin]
increase in urinary glucose excretion [1]: 27 times
effect of a high-fat diet (HFD) on Cmax and AUC ([2]; 25 mg and 50 mg EMPA): reduce
bioavailability [2]: poor
time to reach Cmax [2]: 1.33 to 3.0 h
urine-GLU ([3]; fasting group (n = 19), before EMPA (0.3 ± 0.2) mmol/L): 70.9 ± 29.9 mmol/L
β2-MG ([3]; fasting group, urine after EMPA, before EMPA (0.148 ± 0.054) mg/L, p < 0.05): 0.080 ± 0.065 mg/L
α1-MG ([3]; fasting group, urine after EMPA, before EMPA (2.9 ± 1.7) mg/L, p < 0.05): 1.9 ± 1.8 mg/L
α1-MG level, after vs before EMPA ([3]; fed group (EMPA post-meal), urine): did not show a significant difference
urine-GLU ([3]; fed group (n = 23), before EMPA (0.3 ± 0.3) mmol/L): 89.6 ± 35.4 mmol/L
urine-UA ([3]; fed group, after 4 h of EMPA administration, comparison value (2223.8 ± 891.1) mmol/L, p < 0.05): 2751.5 ± 1018.1 mmol/L
β2-MG ([3]; fed group, urine after EMPA, before EMPA (0.145 ± 0.075) mg/L, p < 0.05): 0.094 ± 0.059 mg/L
blood-GLU ([4]; 2 h after EMPA): 4.8 ± 0.3 mmol/L
insulin ([4]; 2 h after EMPA): 5.0 ± 2.2 mU/L
blood-GLU ([4]; 4 h after EMPA): 4.7 ± 0.3 mmol/L
insulin ([4]; 4 h after EMPA): 4.7 ± 3.2 mU/L
BUN ([4]; fed group, 4 h after EMPA, before EMPA (4.4 ± 1.0) mmol/L): 5.5 ± 1.0 mmol/L
SCr ([4]; fed group, 4 h after EMPA, before EMPA (66.0 ± 8.4) mmol/L as printed): 71.5 ± 9.7 µmol/L
eGFR ([4]; fed group, 4 h after EMPA, before EMPA (141.6 ± 22.0)): 128.3 ± 20.7 ml/min/1.73 m^2
blood-UA ([4]; fed group, 4 h after EMPA, comparison value (369.2 ± 62.9) μmol/L): 342.6 ± 57.6 µmol/L
ALD levels, after vs before EMPA ([5]; fasting group): no significant differences
PRC ([5]; fasting group, 2 h after EMPA, before EMPA (37.3 ± 25.8) pg/mL, p < 0.05): 52.2 ± 28.2 pg/mL
PRC ([5]; fasting group, 4 h after EMPA, before EMPA (37.3 ± 25.8) pg/mL, p < 0.05): 51.5 ± 23.7 pg/mL
Ang II ([5]; fasting group, before EMPA (81.9 ± 9.9) pg/mL, p < 0.05): 88.2 ± 10.3 pg/mL
ALD levels, after vs before EMPA ([5]; fed group): no significant differences
PRC ([5]; fed group, 4 h after EMPA, before EMPA (32.5 ± 22.4) pg/mL, p = ns): 30.4 ± 18.9 pg/mL
Ang II ([5]; fed group, before EMPA (91.6 ± 26.7) pg/mL, p < 0.05): 82.6 ± 23.3 pg/mL
